According to patent US7932389B2, “Octahydropyrrolo[2,3C]pyridine derivatives and pharmaceutical use thereof” (Merck Serono S.A., priority 2004, dated 2011):

What was measured:
metalloelastase (MMP-12) = metalloelastase (MMP-12) (Homo sapiens, UniProt P39900); assay: MMP-12 enzyme inhibition assay, coumarin-labelled peptide substrate McaPLGLDpaAR; assay type: biochemical
Description: (§1) Compounds of the invention were tested to assess their activities as inhibitors of MMP-1, MMP-2, MMP-9, MMP-14 and MMP-12.
(§2) Stock solutions were made up as follows: Assay Butter: 100 mM Tris-HCl pH 7.6 containing 100 mM NaCl, 10 mM CaCl2, and 0.05% Brij 35.
(§3) Substrate: 0.4 mM McaPLGLDpaAR (from Bachem) (0.437 mg/ml) stock solution in 100% DMSO (stored at −20° C.). Dilute to 8 μM in assay butter.
(§4) Test Compounds were prepared initially as 10 mM compound solution in 100% DMSO, diluted to 1 mM in 100% DMSO, then serially diluted 3-fold in 100% DMSO across columns 1-10 of a 96-well microtitre plate Assay concentration range, 100 μM (column 1) to 5.1 nM (column 10).
(§5) The assay was performed in a total volume of 100 μL per well in 96-well microtitre plates. Activated enzyme (20 μL) was added to the wells followed by 20 μL of assay butter. Appropriate concentrations of test compounds dissolved in 10 μL of DMSO were then added followed by 50 μL of McaPLGLDpaAR (8 μM, prepared by dilution of DMSO stock in assay butter). For each as say ten concentrations of test compound were examined in duplicate. Control wells lack either enzyme or test compound. The reactions were incubated at 37° C. for 2 hours. The fluorescence at 405 nm was measured immediately with an SLT Fluostar fluorometer (SLT Labinstruments GmbH, Grödig, Austria) using 320 nm excitation, without stopping the reaction.
(§6) The effect of the test compound was determined from the dose response curve generated by the 10 duplicate concentrations of inhibitor. The IC50 (the concentration of compound required to give a 50% decrease in enzyme activity) was obtained by fitting data to the equation, Y=a+((b−a)/(1+(c/X)^d)). (Y=inhibition achieved for a particular dose; X=the dose in nM; a=minimum y or zero % inhibition; b=maximum y or 100% inhibition; c=is the IC50; d=is the slope). The result was rounded to one significant figure.
Compounds of the invention were tested for inhibitory activity against metalloelastase (MMP-12) in an assay using a coumarin-labelled peptide substrate, (7-methoxycoumarin-4-yl)acetyl-Pro-Leu-Gly-Leu-(3-[2,4dinitrophenyl]-L-2,3-diaminopropionyl)-Ala-Arg-NH2 (McaPLGLDpaAR) (Knight et al, 1992, above). The protocol for this assay was as described for the MMP-9 assay above.

MMP-2 = target: T1, MMP-2 (Homo sapiens, UniProt P08253); assay: MMP-2 enzyme inhibition assay, coumarin-labelled peptide substrate McaPLGLDpaAR; assay type: biochemical
T1 sequence (P08253 110-660): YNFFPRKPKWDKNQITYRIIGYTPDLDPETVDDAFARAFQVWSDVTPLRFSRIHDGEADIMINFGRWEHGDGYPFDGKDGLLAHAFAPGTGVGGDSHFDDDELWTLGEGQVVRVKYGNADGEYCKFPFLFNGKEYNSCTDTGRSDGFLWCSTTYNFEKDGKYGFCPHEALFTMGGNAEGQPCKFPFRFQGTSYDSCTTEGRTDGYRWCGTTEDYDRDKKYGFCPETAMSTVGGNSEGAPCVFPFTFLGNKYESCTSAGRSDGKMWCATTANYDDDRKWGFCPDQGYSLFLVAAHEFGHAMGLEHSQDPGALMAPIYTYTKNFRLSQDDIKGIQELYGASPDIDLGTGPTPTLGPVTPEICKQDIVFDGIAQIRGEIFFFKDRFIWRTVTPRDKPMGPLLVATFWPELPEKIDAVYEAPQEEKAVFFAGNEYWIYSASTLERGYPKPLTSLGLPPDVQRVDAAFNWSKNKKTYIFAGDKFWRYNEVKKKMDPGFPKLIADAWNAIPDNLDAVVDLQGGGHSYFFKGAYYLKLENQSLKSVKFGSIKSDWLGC
Description: as §1, §2, §3, §4, §5, §6
Compounds of the invention were tested for inhibitory activity against collagenase (MMP-2) in an assay using a coumarin-labelled peptide substrate, (7-methoxycoumarin-4-yl)acetyl-Pro-Leu-Gly-Leu-(3-[2,4-dinitrophenyl]-L-2,3diaminopropionyl)-Ala-Arg-NH2 (Mca PLGLDpaAR) (Knight et al, 1992, above). The protocol for this assay was as described for the MMP-9 assay above.

[1] = target: Recombinant human 92 kDa gelatinase (MMP-9) (Homo sapiens, UniProt P14780); assay: MMP-9 enzyme inhibition assay, coumarin-labeled peptide substrate McaPLGLDpaAR; assay type: biochemical
Description: as §1
Compounds of the invention were tested for inhibitory activity against 92 kDa gelatinase (MMP-9) in an assay using a coumarin-labeled peptide substrate, (7-methoxycoumarin-4-yl)acetyl-Pro-Leu-Gly-Leu-(3-[2,4-dinitrophenyl]-L-2,3diaminopropionyl)-Ala-Arg-NH2 (McaPLGLDpaAR) (Knight et al, FEBS Lett. 1992; 263-266).
as §2, §3
Enzyme: Recombinant human 92 kDa gelatinase (MMP-9; APMA (4-aminophenyl mercuric acetate)-activated if necessary) appropriately diluted in assay butter.
as §4, §5, §6

[2] = tested on: IL-2-induced peritoneal recruitment of lymphocytes; assay: IL-2-induced peritoneal recruitment of lymphocytes; assay type: in vivo, C3H/HEN mice; conditions: subcutaneous, 15 min prior to IL-2, cells collected 24 h after IL-2, mice
Description: Administration of IL-2 intraperitoneally causes migration of lymphocytes into the intraperitoneal cavity. This is a model for the cellular migration that occurs during inflammation.
C3H/HEN mice (Elevage Janvier, France) were intraperitoneally injected with IL-2 (Serono Pharmaceutical Research Institute, 20 μg/kg, in saline).
Compounds of the invention were suspended in 0.5% carboxymethylcellulose (CMC)/0.25% tween-20 and were administered by s.c. or p.o. route (10 ml/kg) 15 min prior to administration of IL-2.
Twenty-four hours after administration of IL-2, peritoneal white blood cells were collected by 3 successive lavages of the peritoneal cavity with 5 ml phosphate buffered saline (PBS)-1 mM EDTA (+4° C.). The suspension was centrifuged (1700 g×10 min at +4° C.). The resulting pellet was suspended in 1 ml PBS-1 mM EDTA.
Lymphocytes were identified and counted using a Beckman/Coulter counter.
The animals were divided into 6 groups (6 mice each group):
Group 1: (baseline) received 0.5% CMC/0.25% tween-20 (vehicle of compound of the invention) and saline (vehicle of IL-2);
Group 2: (control IL-2) received 0.5% CMC/0.25% tween-20 and injection of IL-2;
Group 3: Experimental group (Compound of the invention Dose 1) received a compound of the invention and injection of IL-2; […]
Inhibition of lymphocyte recruitment was calculated as follows: […]

Sequence of metalloelastase (MMP-12) (P39900 106-470): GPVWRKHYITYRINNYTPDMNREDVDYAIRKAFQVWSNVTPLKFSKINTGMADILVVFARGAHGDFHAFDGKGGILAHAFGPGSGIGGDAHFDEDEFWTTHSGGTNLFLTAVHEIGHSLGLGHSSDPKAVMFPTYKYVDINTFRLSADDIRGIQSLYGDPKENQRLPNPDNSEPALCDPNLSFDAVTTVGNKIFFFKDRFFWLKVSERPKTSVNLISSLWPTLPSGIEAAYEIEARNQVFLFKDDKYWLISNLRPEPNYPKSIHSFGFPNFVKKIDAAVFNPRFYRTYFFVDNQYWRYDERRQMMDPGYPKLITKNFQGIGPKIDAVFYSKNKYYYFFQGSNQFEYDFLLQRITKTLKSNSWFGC
Sequence of Recombinant human 92 kDa gelatinase (MMP-9) (P14780 107-707 limits assumed): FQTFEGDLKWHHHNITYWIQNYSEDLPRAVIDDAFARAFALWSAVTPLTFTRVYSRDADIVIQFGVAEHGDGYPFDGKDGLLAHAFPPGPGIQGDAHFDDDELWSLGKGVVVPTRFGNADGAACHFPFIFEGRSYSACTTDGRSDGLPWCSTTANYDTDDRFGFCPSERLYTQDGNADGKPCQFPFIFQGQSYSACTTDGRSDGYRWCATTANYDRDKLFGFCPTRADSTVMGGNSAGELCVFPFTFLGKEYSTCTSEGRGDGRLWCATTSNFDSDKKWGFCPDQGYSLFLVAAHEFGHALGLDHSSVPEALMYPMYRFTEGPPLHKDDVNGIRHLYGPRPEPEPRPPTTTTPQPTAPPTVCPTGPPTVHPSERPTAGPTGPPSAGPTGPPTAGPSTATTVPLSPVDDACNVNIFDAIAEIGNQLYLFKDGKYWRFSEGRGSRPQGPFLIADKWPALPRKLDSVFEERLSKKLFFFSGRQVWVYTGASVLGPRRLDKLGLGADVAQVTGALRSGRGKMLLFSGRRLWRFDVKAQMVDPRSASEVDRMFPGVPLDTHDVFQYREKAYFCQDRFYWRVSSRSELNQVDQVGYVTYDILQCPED

| IC50 (metalloelastase (MMP-12)) | IC50 (MMP-2) | IC50 [1] | SMILES | % inhibition of IL-2-induced peritoneal recruitment of lymphocytes ([2]; 3 mg/kg) | % inhibition of IL-2-induced peritoneal recruitment of lymphocytes ([2]; 10 mg/kg) |
| --- | --- | --- | --- | --- | --- |
| 1100 nM | 2100 nM | 1700 nM | COc1ccc(S(=O)(=O)N2[C@H](C(=O)NO)C[C@@H]3CCN(C(=O)c4ccccc4)C[C@@H]32)cc1 (relative stereo) [Example 1, rel-(2S,3aS,7aR)-6-benzoyl-N-hydroxy-1-[(4-methoxyphenyl)sulfonyl]octahydro-1H-pyrrolo[2,3-c]pyridine-2-carboxamide] | – | – |
| 130 nM | 95 nM | 150 nM | COc1ccc(S(=O)(=O)N2[C@H](C(=O)NO)C[C@@H]3CCN(C(C)=O)C[C@@H]32)cc1 (relative stereo) [Example 2, rel-(2S,3aS,7aR)-6-acetyl-N-hydroxy-1-[(4-methoxyphenyl)sulfonyl]octahydro-1H-pyrrolo[2,3-c]pyridine-2-carboxamide] | – | – |
| 640 nM | 640 nM | 780 nM | COc1ccc(S(=O)(=O)N2[C@H](C(=O)NO)C[C@@H]3CCN(C(=O)CCC4CCCC4)C[C@@H]32)cc1 (relative stereo) [Example 4, rel-2S,3aS,7aR)-6-(3-cyclopentylpropanoyl)-N-hydroxy-1-[(4-methoxyphenyl)sulfonyl]octahydro-1H-pyrrolo[2,3-c]pyridine-2-carboxamide] | – | – |
| 980 nM | 850 nM | 1500 nM | COCCOC(=O)N1CC[C@H]2C[C@@H](C(=O)NO)N(S(=O)(=O)c3ccc(OC)cc3)[C@H]2C1 (relative stereo) [Example 5, 2-methoxyethyl rel-(2S,3aS,7aR)-2-[(hydroxyamino)carbonyl]-1-[(4-methoxyphenyl)sulfonyl]octahydro-6H-pyrrolo[2,3-c]pyridine-6-carboxylate] | – | – |
| 610 nM | 790 nM | 1100 nM | COc1ccc(S(=O)(=O)N2[C@H](C(=O)NO)C[C@@H]3CCN(C(=O)C4CCCC4)C[C@@H]32)cc1 (relative stereo) [Example 7, rel-2S,3aS,7aR)-6-cyclopentylcarbonyl)-N-hydroxy-1-[(4-methoxyphenyl)sulfonyl]octahydro-1H-pyrrolo[2,3-c]pyridine-2-carboxamide] | – | – |
| 50 nM | 50 nM | 41 nM | COc1ccc(S(=O)(=O)N2[C@H](C(=O)NO)C[C@@H]3CCN(C(=O)CCc4ccccc4)C[C@@H]32)cc1 (relative stereo) [Example 8, rel-(2S,3aS,7aR)—N-hydroxy-1-[(4-methoxyphenyl)sulfonyl]-6-(3-phenylpropanoyl)octahydro-1H-pyrrolo[2,3-c]pyridine-2-carboxamide] | 33% | – |
| 950 nM | 1600 nM | 1800 nM | COc1ccc(S(=O)(=O)N2CC[C@H]3C[C@@H](C(=O)NO)N(S(=O)(=O)c4ccc(OC)cc4)[C@H]3C2)cc1 (relative stereo) [Example 10, rel-(2S,3aS,7aR)—N-hydroxy-1,6-bis[(4-methoxyphenyl)sulfonyl]octahydro-1H-pyrrolo[2,3-c]pyridine-2-carboxamide] | – | – |
| 80 nM | 370 nM | 870 nM | CS(=O)(=O)N1CC[C@H]2C[C@@H](C(=O)NO)N(S(=O)(=O)c3ccc(Oc4ccncc4)cc3)[C@H]2C1 (relative stereo) [Example 11, rel-(2S,3aS,7aR)—N-hydroxy-6-(methylsulfonyl)-1-{[4-(pyridin-4-yloxy)phenyl]sulfonyl}octahydro-1H-pyrrolo[2,3-c]pyridine-2-carboxamide] | – | 38% |
| 1200 nM | 1700 nM | 1600 nM | COc1ccc(S(=O)(=O)N2[C@H](C(=O)NO)C[C@@H]3CCN(C(=O)c4ccc(-c5ccccc5)cc4)C[C@@H]32)cc1 (relative stereo) [Example 12, rel-(2S,3aS,7aR)-6-(biphenyl-4-ylcarbonyl)-N-hydroxy-1-[(4-methoxyphenyl)sulfonyl]octahydro-1H-pyrrolo[2,3-c]pyridine-2-carboxamide] | – | – |
| 930 nM | 1200 nM | 1500 nM | CCN(CC)C(=O)CN1CC[C@H]2C[C@@H](C(=O)NO)N(S(=O)(=O)c3ccc(OC)cc3)[C@H]2C1 (relative stereo) [Example 14, rel-(2S,3aS,7aR)-6-[2-(diethylamino)-2-oxoethyl]-N-hydroxy-1-[(4-methoxyphenyl)sulfonyl]octahydro-1H-pyrrolo[2,3-c]pyridine-2-carboxamide] | – | – |
| 340 nM | 320 nM | 430 nM | COc1ccc(S(=O)(=O)N2[C@H](C(=O)NO)C[C@@H]3CCN(C(=O)Nc4ccccc4)C[C@@H]32)cc1 (relative stereo) [Example 16, rel-(2S,3aS,7aR)—N^2-hydroxy-1-[(4-methoxyphenyl)sulfonyl]-N^6-phenyloctahydro-6H-pyrrolo[2,3-c]pyridine-2,6-dicarboxamide] | – | – |
| 400 nM | 490 nM | 680 nM | COc1ccc(S(=O)(=O)N2[C@H](C(=O)NO)C[C@@H]3CCN(C(=O)OCc4ccccc4)C[C@@H]32)cc1 (relative stereo) [Example 18, benzyl rel-(2S,3aS,7aR)-2-[(hydroxyamino)carbonyl]-1-[(4-methoxyphenyl)sulfonyl]octahydro-6H-pyrrolo[2,3-c]pyridine-6-carboxylate] | – | – |
